From patent US8404672B2, “Substituted heterocyclic compounds” (Bristol-Meyers Squibb Company, priority 2009, dated 2013)

How the values were obtained:
circulating lymphocytes = test: Blood Lymphocyte Reduction Assay (BLR) in mice; format: in vivo; details: BALB/c mice, oral, vs vehicle group
Description: Blood Lymphocyte Reduction Assay (BLR) in Rodents
Lewis rats or BALB/c mice were dosed orally with test article (as a solution or suspension in the vehicle) or vehicle alone (polyethylene glycol 300, “PEG300”). Blood was drawn at 4 hr and 24 h by retro-orbital bleeding. Blood lymphocyte counts were determined on an ADVIA® 120 Hematology Analyzer (Siemens Healthcare Diagnostics). The results were measured as a reduction in the percentage of circulating lymphocytes as compared to the vehicle treated group at the 4 hr and 24 hr measurement. The results represent the average results of all animals within each treatment group (n=3-4).
A compound of the present invention was tested in the Blood Lymphocyte Reduction assay (BLR) described hereinabove and the results are shown in Table D for rats and Table E for mice.

[1] = biological target: T1, S1P1 (membranes from S1P1 transfected CHO cells) (Homo sapiens, UniProt P21453); test: Method B: Receptor [35S] GTPγS SPA Binding Assay, S1P1; format: biochemical
T1 construct: expressed in transfected cells; host or cells: CHO cells
T1 sequence (P21453 whole entry): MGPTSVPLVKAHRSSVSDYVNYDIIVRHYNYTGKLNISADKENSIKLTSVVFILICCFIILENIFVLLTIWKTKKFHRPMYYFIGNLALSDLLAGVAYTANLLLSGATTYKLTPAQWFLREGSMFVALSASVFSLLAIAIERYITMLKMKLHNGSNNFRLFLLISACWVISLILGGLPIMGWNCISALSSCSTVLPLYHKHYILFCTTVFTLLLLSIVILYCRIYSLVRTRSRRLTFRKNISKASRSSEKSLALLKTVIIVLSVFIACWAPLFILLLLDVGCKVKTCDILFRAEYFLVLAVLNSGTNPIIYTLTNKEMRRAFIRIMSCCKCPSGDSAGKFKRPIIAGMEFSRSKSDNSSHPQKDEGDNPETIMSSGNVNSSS
Description: Method B: Receptor [35S] GTPγS SPA Binding Assays
Membranes prepared from S1P1 or S1P3 transfected CHO cells ([…]) were incubated in 96-well white plates (CORNING® 3693) with test compounds diluted in DMSO, in 50 μl of reaction mixture containing 7.5 μl WGA-PVT beads (20 mg/ml), and 5 μM GDP, 20 mM HEPES pH 7.4, 100 mM NaCl, 1 mM EDTA, 5 mM MgCl2, 10 μg/ml saponin, 0.1% BSA, and 1 μM leupeptin. The assay was initiated with the addition of […] of 0.2 nM [^35S]-GTPγS (1250 Ci/mmol; NEN) in assay buffer. After 90 min incubation at room temperature, spin the plate at 1000 rpm for 5 min. The bound radionuclides were measured at TOPCOUNT®, expressed as % response relative to S1P (1 μM) activation. Data was analyzed using the four parameter logistic equation in Excel. The four parameters in the equation, Y=A+((B−A)/(1+((EC50/X)^D))), are described as following: A is the Y value (agonist activity) at the bottom plateau; B is the Y value at the top plateau; EC50 is the X value (agonist concentration) when the response is halfway between bottom and top; D is Hill coefficient. Curves were not generated for compounds having Ymax values were below 50%.
Compounds of the present invention and Comparative Compound A were tested in the Receptor [35S] GTPγS Binding Assays (Method A) and Receptor [35S] In some instances, the value is an average of multiple experiments where N is the number of experiments conducted that provided satisfactory dose response curves. When more than one batch of an example was tested, the value presented is from a batch which allowed a comparison of GTPγS S1P1 and GTPγS S1P3 in which the most number of experiments were performed. Preferably, the same batch was examined in Method A and Method B. Data was not averaged across different batches of an example compound.

human S1P1 = biological target: T2, human S1P1 (Homo sapiens, UniProt P21453); test: S1P1 Binding Assay (33P-S1P radioligand competition, CHO cell membranes); details: membranes from CHO cells expressing human S1P1; 0.03 nM 33P-S1P; 60 min room temperature
T2 construct: expressed in transfected cells; host or cells: CHO cells
T2 sequence (P21453 whole entry): as above
Description: Membranes were prepared from CHO cells expressing human S1P1. Cells were dissociated in buffer containing 20 mM HEPES, pH 7.5, 50 mM NaCl, 2 mM EDTA and Protease Inhibitor cocktail (Roche), and disrupted on ice using the Polytron homogenizer. The homogenate was centrifuged at 20,000 rpm (48,000 g) and the supernatant was discarded. The membrane pellets were resuspended in buffer containing 50 mM HEPES, pH 7.5, 100 mM NaCl, 1 mM MgCl2, 2 mM EDTA and stored in aliquots at −80° C. after protein concentration determination.
Membranes ([…]) and 0.03 nM final concentration of ^33P—S1P ligand (1 mCi/ml, American Radiolabeled Chemicals) were added to the compound plates. Binding was performed for 60 min at room temperature, terminated by collecting the membranes onto GF/B filter plates, and radioactivity was measured by TOPCOUNT®. The competition data of the test compounds over a range of concentrations was plotted as percentage inhibition of radioligand specific binding. The IC50 is defined as the concentration of competing ligand needed to reduce specific binding by 50%.
Compounds of the present invention and Comparative Compound A were tested in the S1P1 binding assay described hereinabove and the results rounded to two digits, shown in Table A were obtained. In some instances, the value is an average of multiple experiments where N is the number of experiments conducted that provided satisfactory dose response curves. When more than one batch of an example was tested, the value presented is from the batch which allowed a comparison of GTPγS S1P1 and GTPγS S1P3 in Method A (Data shown in Table B). Data was not averaged across different batches of an example compound.

## O=C(O)C1CN(Cc2ccc(-c3noc(-c4onc(-c5ccccn5)c4C(F)(F)F)n3)cc2)C1 [Example 1, 1-(4-(5-(3-(Pyridin-2-yl)-4-(trifluoromethyl)isoxazol-5-yl)-1,2,4-oxadiazol-3-yl)benzyl)azetidine-3-carboxylic acid]
Circulating lymphocytes; 0.008 mg/kg
  % reduction in lymphocytes at 4 hr.: 13%
  % reduction in lymphocytes at 24 hr.: 8%
Circulating lymphocytes; 0.04 mg/kg
  % reduction in lymphocytes at 4 hr.: 67%
  % reduction in lymphocytes at 24 hr.: 39%
Circulating lymphocytes; 0.2 mg/kg
  % reduction in lymphocytes at 4 hr.: 82%
  % reduction in lymphocytes at 24 hr.: 74%
Circulating lymphocytes; 1.0 mg/kg
  % reduction in lymphocytes at 4 hr.: 83%
  % reduction in lymphocytes at 24 hr.: 77%
[1]; Method B SPA, S1P1 transfected CHO membranes
  EC50: 0.17 nM
[1]; ratio of GTPγS S1P3 EC50 to GTPγS S1P1 EC50, Method B
  GTPγS S1P3/S1P1 (Method B): 37,000
Human S1P1
  IC50: 0.21 nM
